For one assay, the system named is LNCap cells. The assay can be described thus: Cell viability assay (CellTiterGlo). Conditions: Homo sapiens, 144 h. The format is cell-based.
A further assay deals with T47D cells. The assay can be described thus: Cell viability assay (CellTiterGlo). The class given is cell-based. Conditions: Homo sapiens, 144 h, 6 days incubation, CellTiterGlo, read-out: T47D (IC50).
A further assay deals with IEC6 cells. The assay can be described thus: Cell viability assay (CellTiterGlo). Particulars: Rattus norvegicus, IEC-6, 144 h, read-out: IEC-6 (IC50, nM).
Assay [1] deals with T1, AR (cytosol from LnCaP cells) (Homo sapiens, UniProt P10275, T878A).
T1 sequence (P10275 1-920 T878A): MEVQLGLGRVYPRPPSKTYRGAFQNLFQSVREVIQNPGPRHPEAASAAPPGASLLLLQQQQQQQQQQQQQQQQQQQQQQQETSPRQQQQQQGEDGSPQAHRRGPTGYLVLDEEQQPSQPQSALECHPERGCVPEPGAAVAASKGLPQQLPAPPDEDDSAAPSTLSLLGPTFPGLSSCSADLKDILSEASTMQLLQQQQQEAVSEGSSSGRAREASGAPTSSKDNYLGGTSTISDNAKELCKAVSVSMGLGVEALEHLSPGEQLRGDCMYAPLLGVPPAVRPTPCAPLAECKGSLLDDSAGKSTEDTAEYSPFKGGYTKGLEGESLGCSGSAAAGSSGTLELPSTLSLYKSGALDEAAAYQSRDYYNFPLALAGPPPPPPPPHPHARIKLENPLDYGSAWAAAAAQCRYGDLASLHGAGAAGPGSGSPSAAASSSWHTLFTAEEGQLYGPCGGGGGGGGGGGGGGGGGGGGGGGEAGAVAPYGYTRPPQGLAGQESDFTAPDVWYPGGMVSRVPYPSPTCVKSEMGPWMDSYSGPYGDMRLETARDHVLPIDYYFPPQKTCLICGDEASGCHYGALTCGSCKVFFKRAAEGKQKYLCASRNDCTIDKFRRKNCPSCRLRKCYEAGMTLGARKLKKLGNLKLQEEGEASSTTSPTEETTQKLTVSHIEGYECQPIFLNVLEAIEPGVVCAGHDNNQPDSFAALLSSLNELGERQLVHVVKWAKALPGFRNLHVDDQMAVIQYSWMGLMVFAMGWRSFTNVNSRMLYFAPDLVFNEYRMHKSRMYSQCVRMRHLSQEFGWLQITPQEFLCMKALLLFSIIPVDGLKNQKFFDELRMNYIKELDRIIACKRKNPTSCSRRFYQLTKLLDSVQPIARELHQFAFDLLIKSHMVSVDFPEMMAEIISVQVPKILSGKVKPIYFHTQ
The assay can be described thus: AR binding assay (3H-R1881 displacement).
Method: The plate was then centrifuged at 3000 rpm for 30 minutes at 4° C.

The target in assay [2] is T2, full-length androgen receptor (HEK293 cells stably expressing) (Homo sapiens, UniProt P10275).
T2 sequence (P10275 1-920): T1 sequence (P10275 1-920 T878A) with A878T
Nature of the assay: AR antagonism assay (luciferase reporter).

Assay [3] deals with T3, GR (cytosol from IM-9 cells) (Homo sapiens, UniProt P04150).
T3 sequence (P04150 1-777): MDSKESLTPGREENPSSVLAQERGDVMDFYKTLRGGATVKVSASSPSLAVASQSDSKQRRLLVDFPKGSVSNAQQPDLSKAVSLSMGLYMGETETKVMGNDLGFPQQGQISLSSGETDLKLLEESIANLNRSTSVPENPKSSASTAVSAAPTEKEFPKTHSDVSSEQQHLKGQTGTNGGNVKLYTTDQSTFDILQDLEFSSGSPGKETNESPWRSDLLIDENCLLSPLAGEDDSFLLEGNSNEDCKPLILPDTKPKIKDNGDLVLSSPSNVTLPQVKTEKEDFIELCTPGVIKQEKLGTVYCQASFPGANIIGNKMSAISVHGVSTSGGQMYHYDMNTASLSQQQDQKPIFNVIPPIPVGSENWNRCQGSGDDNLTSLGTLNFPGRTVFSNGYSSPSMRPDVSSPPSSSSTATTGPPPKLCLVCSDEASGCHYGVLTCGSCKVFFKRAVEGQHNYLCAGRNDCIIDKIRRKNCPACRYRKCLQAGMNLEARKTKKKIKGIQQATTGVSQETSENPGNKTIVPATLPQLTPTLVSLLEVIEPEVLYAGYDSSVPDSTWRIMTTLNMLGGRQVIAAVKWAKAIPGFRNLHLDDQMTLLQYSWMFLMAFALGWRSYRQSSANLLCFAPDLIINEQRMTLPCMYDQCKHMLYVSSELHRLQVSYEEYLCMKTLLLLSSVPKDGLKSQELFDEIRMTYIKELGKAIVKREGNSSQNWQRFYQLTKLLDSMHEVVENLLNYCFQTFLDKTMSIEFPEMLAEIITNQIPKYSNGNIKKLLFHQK
The assay can be described thus: GR binding assay (3H-Dexamethasone displacement).

In the next assay the test system is 22Rv1 cells. Nature of the assay: Cell viability assay (CellTiterGlo). Conditions: Homo sapiens, 22Rv1, 144 h, read-out: 22RV1 (IC50, nM).
Assay [4] concerns the target T4, ligand binding domain of the glucocorticoid receptor (HEK293 cells stably expressing) (Homo sapiens, UniProt P04150).
T4 sequence (P04150 524-758 limits assumed): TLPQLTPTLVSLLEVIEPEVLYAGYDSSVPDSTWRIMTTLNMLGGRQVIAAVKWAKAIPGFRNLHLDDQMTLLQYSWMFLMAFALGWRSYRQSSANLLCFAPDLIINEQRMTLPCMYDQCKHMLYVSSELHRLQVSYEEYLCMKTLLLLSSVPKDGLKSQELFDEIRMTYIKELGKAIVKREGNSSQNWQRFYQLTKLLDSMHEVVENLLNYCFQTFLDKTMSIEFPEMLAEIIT
Nature of the assay: GR antagonism assay (luciferase reporter).
Method: HEK293 cells stably expressing the ligand binding domain of the glucocorticoid receptor were seeded at a density of 40000 cells/well in the assay plate. The assay plate was then incubated at 37° C., 5% CO2 for 30 minutes. Dexamethasone was added to the assay plate at 1.5 nM final concentration and the assay plate incubated at 37° C., 5% CO2 for 20 h. After the incubation period, Dual-glo luciferase reagent was added to the assay plate and mixed at room temperature for 20 minutes on an orbital shaker, before reading out on the En Vision plate reader. 50 μL of Stop & Glo reagent was added to assay plate, mixed at room temperature for 20 minutes, and read on the Envision plate reader.

The mark [5] stands for this setting: 6 days incubation, CellTiterGlo, read-out: LNCap (IC50).

Numbering of substitutions follows the chain as printed. Structures can show the parent of a compound that is named as a salt. Where two headings read alike, the source gives them in different places. A value given as a limit tells only on which side of the number the result lay.

In the case of `CC[C@@]1(O)C(=O)OCc2c1cc1n(c2=O)Cc2cc3c(CN4CCN(CC5CCN(c6ccc(C(=O)N[C@H]7CC[C@H](N(C)c8ccc(C#N)c(Cl)c8)CC7)nn6)CC5)CC4)c(OC)ccc3nc2-1` [Compound 40, N-((1r,4r)-4-((3-chloro-4-cyanophenyl)(methyl)amino)cyclohexyl)-6-(4-((4-(((S)-4-ethyl-4-hydroxy-9-methoxy-3,14-dioxo-3,4,12,14-tetrahydro-1H-pyrano[3′,4′:6,7]indolizino[1,2-b]quinolin-10-yl)methyl)piperazin-1-yl)methyl)piperidin-1-yl)pyridazine-3-carboxamide formic acid salt], the IC50 with LNCap cells (setting [5]) was 101 to 1000 nM; in the assay with T47D cells it was 10 to 100 nM; with IEC6 cells it was 101 to 1000 nM; in assay [1], 10 to 100 nM; in assay [2] it was > 1000 nM.

In the case of `CC[C@@]1(O)C(=O)OCc2c1cc1n(c2=O)Cc2c-1nc1cc(F)c(C)c3c1c2[C@@H](N(C)C(=O)COCCC(=O)N1CCC(CN(C)c2ccc([C@H]4C[C@@]5(C)[C@@H](CC[C@]5(OC(C)=O)C(C)=O)[C@@H]5CCC6=CC(=O)CCC6=C54)cc2)CC1)CC3` [Compound 54], the IC50 in the assay on LNCap cells (setting [5]) was 10 to 100 nM; in the assay on T47D cells, 101 to 1000 nM; in the assay on IEC6 cells, 101 to 1000 nM.

`CC[C@@]1(OC(=O)N2CCN(CCCCCCN(C)c3ccc([C@H]4C[C@@]5(C)[C@@H](CC[C@]5(OC(C)=O)C(C)=O)[C@@H]5CCC6=CC(=O)CCC6=C54)cc3)CC2)C(=O)OCc2c1cc1n(c2=O)Cc2cc3cc(O)ccc3nc2-1` [Compound 57, (S)-4-ethyl-9-hydroxy-3,14-dioxo-3,4,12,14-tetrahydro-1H-pyrano[3′,4′:6,7]indolizino[1,2-b]quinolin-4-yl 4-(6-((4-((8S,11R,13S,14S,17R)-17-acetoxy-17-acetyl-13-methyl-3-oxo-2,3,6,7,8,11,12,13,14,15,16,17-dodecahydro-1H-cyclopenta[a]phenanthren-11-yl)phenyl)(methyl)amino)hexyl)piperazine-1-carboxylate]: the IC50 in the assay with LNCap cells (setting [5]) was 101 to 1000 nM; with T47D cells, 10 to 100 nM; in the assay on IEC6 cells it was > 1000 nM; in assay [1] it was 10 to 100 nM; in assay [3] it was < 10 nM.

Take `CC[C@@]1(O)C(=O)OCc2c1cc1n(c2=O)Cc2cc3c(CN(C)C)c(OC(=O)N4CCN(CC5CCN(c6ccc(C(=O)N[C@H]7CC[C@H](N(C)c8ccc(C#N)c(Cl)c8)CC7)nn6)CC5)CC4)ccc3nc2-1` [Compound No. 18, (S)-10-((Dimethylamino)methyl)-4-ethyl-4-hydroxy-3,14-dioxo-3,4,12,14-tetrahydro-1H-pyrano[3′,4′:6,7]indolizino[1,2-b]quinolin-9-yl 4-((1-(6-(((1r,4r)-4-((3-chloro-4-cyanophenyl)(methyl)-amino)cyclohexyl)carbamoyl)pyridazin-3-yl)piperidin-4-yl)methyl)piperazine-1-carboxylate]: the IC50 in the assay with LNCap cells (read-out: LNCap (IC50, nM)) fell in the range of 10 to 100 nM; in the assay on 22Rv1 cells, 10 to 100 nM; in the assay on IEC6 cells it was 101 to 1000 nM; in assay [1], 10 to 100 nM; in assay [2], 101 to 1000 nM; in assay [4] it was 101 to 1000 nM. Besides, in assay [3], the IC50 was 101 to 1000 nM.

As for `CC[C@@]1(O)C(=O)OCc2c1cc1n(c2=O)Cc2cc3c(CN(C)C)c(OC(=O)N4C[C@H](C)N(C(=O)C5CCN(c6ccc(C(=O)N[C@H]7CC[C@H](Oc8ccc(C#N)c(Cl)c8C)CC7)nn6)CC5)C[C@H]4C)ccc3nc2-1` [Compound No. 21, (S)-10-((Dimethylamino)methyl)-4-ethyl-4-hydroxy-3,14-dioxo-3,4,12,14-tetrahydro-1H-pyrano[3′,4′:6,7]indolizino[1,2-b]quinolin-9-yl (2R,5S)-4-(1-(6-(((1r,4r)-4-(3-chloro-4-cyano-2-methylphenoxy)cyclohexyl)carbamoyl)pyridazin-3-yl)piperidine-4-carbonyl)-2,5-dimethylpiperazine-1-carboxylate Formate], the IC50 in the assay on LNCap cells (read-out: LNCap (IC50, nM)) is 10 to 100 nM; in the assay on 22Rv1 cells, 101 to 1000 nM; in the assay with IEC6 cells, > 1000 nM; in assay [1], < 10 nM; in assay [2] it was > 1000 nM; in assay [4] it was > 1000 nM. The IC50 in assay [3] is > 1000 nM.

(Values after patent US20260102501A1, “ANTI-CANCER NUCLEAR HORMONE RECEPTOR-TARGETING COMPOUNDS” (Nuvation Bio Inc., priority 2022, published 2026).)
